Values quoted from earlier work in article PMC11419783 (Blood, 2024).

What was measured:
[1] = tested on: KMT2A-r cell lines engineered to express mutant menin (M327I or T349M); conditions: M327I or T349M in endogenous MEN1-coding sequence
[2] = tested on: Recombinant mutant MEN1 (MEN1^M327I, MEN1^T349M)
[3] = tested on: KMT2A and NPM1 altered R/R acute leukemia; conditions: recommended phase 2 dose, NPM1-altered disease

Row | Compound | sensitivity of menin-mutant cell lines to antiproliferative effects [1] | binding affinity to mutant MEN1 [2] | complete remission/complete remission with partial recovery of peripheral blood counts [3] [%]
1 | COc1cc(-c2ccc(CN[C@H]3C[C@@H](O)[C@@H](N(C)c4ncnc5sc(CC(F)(F)F)cc45)C3)cc2)nnc1OC [DS-1594] | resistant | – | –
2 | CNc1nc(NC2CCN(Cc3ccc4c(cc(C#N)n4CC45CC(NC=O)(C4)C5)c3C)CC2)c2cc(CC(F)(F)F)sc2n1 [MI3454] | resistant | – | –
3 | CCN(C(=O)c1cc(F)ccc1Oc1cncnc1N1CC2(CCN(C[C@H]3CC[C@H](NS(=O)(=O)CC)CC3)CC2)C1)C(C)C [revumenib] | resistant | significant reduction in binding affinity | –
4 | CNc1nc(NC2CCN(Cc3ccc4c(cc(C#N)n4C[C@H](C)N4CCN(S(C)(=O)=O)CC4)c3C)CC2)c2cc(CC(F)(F)F)sc2n1 [ziftomenib] | – | – | 35
